Results reported in publication PMC3835791, “Non-Invasive Imaging of Tumors by Monitoring Autotaxin Activity Using an Enzyme-Activated Near-Infrared Fluorogenic Substrate” (PLoS ONE, 2013).
Values belong to the compound of their own block, whether it stands above or below them.

Legend:
[1] = test system: MDA-MB-231 orthotopic tumor (ATX activity); assay: In vivo NIRF imaging and ex vivo tissue analysis of mice with orthotopic tumors
Source text: Animal studies were approved by the Institutional Animal Care and Use Committee (IACUC) of the University of Utah (protocol numbers 10-10016 and 12-05013). Tumors in mice were established as previously described, [41]. Briefly, approximately ten-week old female nude (Nu/Nu) mice (Charles River Laboratories International, Wilmington, MA) were lightly anesthetized with isoflurane and subcutaneously inoculated with MDA-MB-231 cells in the left thoracic mammary glands. Prior to inoculation, cells were suspended in Extracel to make 5×10^7 cells/mL and each mouse received 0.1 mL of Extracel tumor suspension. To reduce auto-fluorescence arising from the feed, mice were switched to specially formulated diet (2920X, Harlan Laboratories, WI) at least two days prior to imaging.
Six weeks after tumor graft, mice were imaged using AR-2. To visualize tumors, AR-2 was diluted in PBS, filtered through a 0.2 µm porous membrane, and intravenously injected via the lateral vein at 0.5 mg/kg b.w. bolus. The animals were then imaged 48 h after injection with a Pearl Impulse Imager (LI-COR Biosciences, NE) using the 800 nm channel. The fluorescence signals from acquired images were analyzed using Pearl Impulse Software v 2.0 (LI-COR Biosciences) according the manufacturer's protocols. […] ATX-Red dosing, delivery and imaging were unchanged.
Animals were sacrificed, organs were dissected and weighed, then ex vivo fluorescence was imaged and quantified as previously described. Tumors were immediately frozen until further use. Thawed tumors were homogenized in ice cold buffer containing 10 mM Tris pH 7.4, 200 mM NaCl, 10% glycerin, 5 mM EDTA and 1× Halt protease inhibitor cocktail (Thermo Scientific, Rockford, Il.) at a ratio of 40 mg tumor to 1 mL buffer. Samples were centrifuged at 14,000× g at 4°C. ATX levels were determined by diluting supernatants ten times in RD5-10 and assayed using a Human ENPP-2/Autotaxin ELISA (R&D Systems, Minneapolis, MN) and an Autotaxin Sandwich ELISA (Echelon Biosciences, Inc., Salt Lake City, UT) using the manufacturers' protocol. Total protein levels were determined by the method of Bradford. Statistical significance was compared using a two-tailed t-test using Prism.

[2] = molecular target: T1, ATX in media from COS-7 cells (Homo sapiens, UniProt Q13822); assay: AR-2 activation by media from COS-7 cells transfected with ATX-encoding plasmid; type: cell-based; details: AR-2 1 µM
T1 construct: expressed in transfected cells; host or cells: COS-7
Description: COS-7 cells grown in Dulbecco's Modified Eagle Medium (DMEM) supplemented with 10% FBS and penicillin/streptomycin were transfected with human β ATX cDNA inserted into pcDNA DEST40 (Invitrogen, CA) or mock plasmid in DMEM without FBS using TransIT®-2020 transfection reagent (Mirus Bio, WI) according to the manufacturer's protocol.
(§1) Equal volumes of cell media (COS-7) or conditioned media (MDA-MB-231 or MDA-MB 435) were mixed with buffer to achieve a final concentration of AR-2 (1 µM). All other conditions were as described for purified enzymes.

mouse ATX = molecular target: T2, mouse ATX (Mus musculus, UniProt Q9R1E6); assay: AR-2 reactions with purified enzymes: mouse ATX; type: biochemical; details: AR-2 100 nM, 10 nM enzyme
T2 construct: purchased R&D Systems (Minneapolis, MN)
Description: (§2) AR-2 (100 nM) was incubated with the indicated enzyme in buffer containing 50 mM Tris-Cl pH 8.0, 5 mM KCl, 1 mM CaCl2, 1 mM MgCl2, 140 mM NaCl, and 1 mg/mL fatty acid free bovine serum albumin. Reactions were immediately placed in a Spectramax M2 plate reader (Molecular Devices, Sunnyvale, CA) set at 37°C, monitoring fluorescence exciting at 750 nm and emitting at 805 nm over time. Unless otherwise stated, all reactions used 10 nM enzyme, except alkaline phosphatase, which was performed at 0.1 unit/µL.

[3] = Pharmacokinetics of AR-2 in plasma after intravenous dosing; type: in vivo, mice
Description: To investigate preliminary PK of AR-2, female BALB/c mice aged 8–10 wks old (Charles River Laboratories, MA) were used. The animals were allowed to acclimatize to housing at least one week prior to use. At day 0, AR-2 was administered as a single bolus injection through lateral tail vein at a dosage of 1.0 mg/kg b.w. The animals were then lightly anesthetized with isoflurane for blood collection at 0, 0.08, 0.25, 0.5, 1, 2, 4, 6, 24, and 48 h after AR-2 administration. Blood samples were collected in EDTA coated tubes by submandibular bleeding or caudal vena cava (at time of sacrifice) with the maximum number of two blood collections from each animal. The collected blood samples were centrifuged, and the plasma was stored at −20°C until analysis.
To determine the concentration of AR-2 in plasma, samples were prepared according to the following procedures. Plasma samples were mixed with nine volumes of tert-butanol∶water (7∶1) then centrifuged at 14,000× g to pellet precipitated proteins. The resulting supernatant was frozen and lyophilized. Samples were then reconstituted in cold PBS and subjected to HPLC analysis using a C18 column (Waters, Milford, MA) with a gradient of 5–60% acetonitrile in 50 mM triethylammonium acetate (pH 6.0). Peaks with absorbance at 778 nm were integrated and compared to mouse plasma samples containing known concentrations of AR-2. The resulting AR-2 concentration versus time data were plotted and fitted with a sum of two exponentials to calculate plasma half-life (t1/2) and various pharmacokinetic parameters using the PK package in R Statistics (version 2.15.1).

Purified human ATX [4] = molecular target: T3, Purified human ATX (Homo sapiens, UniProt Q13822); assay: Michaelis constant of fluorogenic ATX substrates; type: biochemical; details: fluorogenic ATX substrate, rate of fluorescence increase at varying substrate concentrations
T3 construct: purchased Echelon Biosciences, Inc. (Salt Lake City, UT)
Description: as §2
(§3) The Michaelis constant (Km) was determined for each compound by measuring the rate of fluorescence increase at varying substrate concentrations using Prism to fit to the Michaelis-Menton equation. Inner filter effects were overcome using previously described methods. The inhibition constant (Ki) for each set of reactions was determined from the IC50 following standard methods.

[5] = test system: human NPP1, human and mouse NPP7, shrimp alkaline phosphatase, human LPLA2 and human INPP4A; assay: AR-2 reactions with purified enzymes homologous to ATX (selectivity panel); type: biochemical; details: AR-2 100 nM, 10 nM enzyme (alkaline phosphatase 0.1 unit/µL), versus buffer control
Description: as §2

human ATX = molecular target: T4, human ATX (Homo sapiens, UniProt Q13822); assay: AR-2 reactions with purified enzymes: human ATX; type: biochemical; details: AR-2 100 nM, 10 nM enzyme
T4 construct: purchased Echelon Biosciences, Inc. (Salt Lake City, UT)
Description: as §2

[6] = molecular target: T5, ATX in conditioned media from MDA-MB-435 and MDA-MB-231 cells (Homo sapiens, UniProt Q13822); assay: AR-2 activation by conditioned media from cancer cells overexpressing ATX, with and without PF-8380; type: cell-based; details: PF-8380 1 µM, conditioned media from MDA-MB-435 or MDA-MB-231 cells, AR-2 1 µM
T5 construct: host or cells: MDA-MB-231 and MDA-MB-435 (conditioned media concentrated about 40-fold)
Description: MDA-MB-231 and MDA-MB-435 cells were grown to 80% confluence in Roswell Park Memorial Institute (RPMI) medium supplemented with 10% FBS. Cells were rinsed twice with PBS and grown for approximately 60 h in RPMI supplemented with 1% FBS. Media were centrifuged at 1000× g for 1 min to collect cells. Conditioned media was prepared by concentrating the supernatant ∼40-fold using Amicon Ultra YM30 (Millipore, Billerica, MA).
as §1

Purified human ATX [7] = molecular target: T3, Purified human ATX; assay: Evaluation of ATX inhibition with fluorogenic substrates (AR-2 or FS-3); type: biochemical; details: human ATX 2 nM, 37°C, Ki determined from the IC50
Description: DMSO was spiked into each reaction mixture to equalize vehicle concentrations. Purified human ATX (2 nM final concentration) was mixed with varying concentrations of inhibitor at 37°C for 10 min, then AR-2 or FS-3 was added to a final concentration of 1 µM. The rates of fluorescence increase were measured for up to 2 h. The initial velocity of fluorescence increase was determined and normalized to control reactions. The IC50 of each compound was calculated by fitting a standard curve using a sigmoidal dose-response (variable slope) nonlinear regression curve using GraphPad Prism (version 5.03).
as §3

[8] = MDA-MB-231 xenografts, 48 h after AR-2 dosing, ex vivo

NIRF signal in excised tumors compared to most other organs [1, 8]: strongly elevated
NIRF signal in kidneys and liver [1, 8]: Moderate signals
NIRF signal in stomach [1, 8]: Modest fluorescence
activation of AR-2 fluorescence by mouse ATX (mouse ATX): activated AR-2 with similar efficiencies
apparent volume of distribution (Vd) in 20 g mouse ([3]; 20 g mouse): 8.6 mL
fraction of AR-2 eliminated ([3]; 42 h after dosing (5 half-lives)): approximately 97%
half-life of first phase of bi-exponential plasma decrease ([3]; BALB/c mice, 1.0 mg/kg i.v. bolus, bi-exponential fit, first phase): 18 min
apparent volume of distribution (Vd) ([3]; mice, i.v.): 432 mL/kg, b.w.
apparent volume of distribution as share of body weight ([3]; mice, i.v.): ~43 % of body weight
Km (Purified human ATX [4]): 0.66 ± 0.05 µM
activation of AR-2 fluorescence by human ATX (human ATX): activated AR-2 with similar efficiencies
SMILES: CC1(C)C(/C=C/C2=C(Oc3ccc(S(=O)(=O)O)cc3)C(=C/C=C3/N(CCCCS(=O)(=O)O)c4ccc(S(=O)(=O)[O-])cc4C3(C)C)/CCC2)=[N+](CCCCCC(=O)NCCCCCC(=O)OC[C@@H](O)COP(=O)(O)OCCNC(=O)CCOCCOCCOCCOCCNC(=O)CCCCCN2/C(=C/C=C3\CCCC(/C=C/C4=[N+](CCCS(=O)(=O)O)c5ccc(N(CCCS(=O)(=O)O)CCCS(=O)(=O)O)cc5C4(C)C)=C3Cl)C(C)(C)c3c2ccc2cc(S(=O)(=O)[O-])ccc32)c2ccc(S(=O)(=O)O)cc21 [AR-2]
activation of AR-2 by media from ATX-transfected versus mock-transfected COS-7 cells [2]: media from ATX-transfected, but not mock-transfected, cells activated AR-2
activation of AR-2 fluorescence by related enzymes [5]: none of the related enzymes tested generated a fluorescence response above buffer control

rate of AR-2 fluorescence signal generation in conditioned media with inhibitor [6]: dramatically reduced
SMILES: O=C(CCN1CCN(C(=O)OCc2cc(Cl)cc(Cl)c2)CC1)c1ccc2[nH]c(=O)oc2c1 [PF-8380, reference compound]
AR-2 fluorescence signals in excised tumors normalized to protein, inhibitor-treated versus vehicle-treated mice ([1]; PF-8380 30 mg/kg single oral gavage 20 min prior to AR-2 injection, MDA-MB-231 tumors, P<0.001): significantly reduced

Ki (Purified human ATX [7]; ATX substrate AR-2 (1 µM)): 1.6 ± 1.9 nM
Ki (Purified human ATX [7]; ATX substrate FS-3 (1 µM)): 5.5 ± 3.3 nM
SMILES: CCCCCCCCCCCCCC(=O)Nc1ccc(CP(=O)(O)O)cc1 [S32826]
